Entries after “also recorded” stand apart in the source; their conditions may differ.
Experiments:
MEL-STR cells [1] = assay: Annexin V-FITC apoptosis detection by flow cytometry (apoptotic+dead cells); assay type: cell-based, human; details: for fold more potent at inducing apoptosis in STR compared to STVP cells: 5 hour exposure (FIGS. 13, 14); for greater sensitivity / potency advantage, malignant versus non-malignant cells, induction of apoptosis: 5 hrs exposure (FIG. 3, FIG. 4)
Method: (§1) FIG. 2. […] Malignant (MEL-STR) and non-malignant (MEL-STVP) cells used in these experiments were derived originally from normal human foreskin melanocytes obtained from the Weisberg lab. These original surgical samples were genetically modified to grow continuously in vitro and are non-tumor-forming in a nude mouse model. These same cells were genetically modified further to generate the tumor-forming cell line and were propagated.
Apoptotic+dead cells were assayed in this experiment and those that follow below on a Becton-Dickenson flow cytometer using an Annexin V-FITC Apoptosis Detection Kit as described by the manufacturer.
Drug exposure time was 5 hrs. Viable and live cells were measured by FACS and by Coulter counting, respectively. […] Panels A & B: solid circles and lines, STR cells; open circles and broken lines, STVP cells; Panel B, inverse logit/log plot of the data from Panel A. Solid gray circles in Panel B (extrapolated minimum values on abscissa) were used to plot the maximum values shown in Panel A.

MEL-STR cells [2] = assay: Cell morphology (FACS light scatter, microscopic examination); assay type: cell-based, human
Excerpt: Calmodulin is known to be required for traverse of late G1, G2, and specific periods during mitosis and coincides with periods of elevated […] levels.
The involvement of a form of PKC in the enzyme tetrad that is involved in Ca^2+-dependent, cell cycle phase transitions is given in FIG. 4. […] Four different means for assaying the effect of these two chemicals are shown.

MEL-STVP cells = assay: Annexin V-FITC apoptosis detection by flow cytometry (apoptotic+dead cells); assay type: cell-based, human
Excerpt: as §1, with “propagated. Thus, this represents an ideal pair of highly similar cells by which drug specificity between normal and malignant cells can be assessed.” for “propagated.”
Transformed MEL-STR cells were incubated over a period of 24 hrs in the presence of a previously determined ineffective concentration (10 μm) of the CAM antagonist W-7 or the drug vehicle DMSO (1%) as controls and a concentration of 60 μm W-7 as illustrated. Apoptotic+dead cells were assayed in this experiment and those that follow below on a Becton-Dickenson flow cytometer using an Annexin V-FITC Apoptosis Detection Kit as described by the manufacturer.
Drug exposure time was 5 hrs. Viable and live cells were measured by FACS and by Coulter counting, respectively. Dose-dependent decreases in viable cells were inversely proportional to the number of Annexin+Propidium Iodide positive staining cells (data not shown) in these and the following experiments. […]

STVP cells = assay: Cell density / growth inhibition by Coulter counting; assay type: cell-based, human; details: PP2B-AIP alone, wide concentration range, 24 hours
Method: Closed circles, solid lines, PP2B-AIP only; open circles, dashed lines, PP2B+C6C (15 uM). Cell density was quantified by Coulter counting which measures only cells with Panel A, STR cells; Panel B, STVP cells. Closed circles, solid lines, PP2B-AIP only; open circles, dashed lines, PP2B+C6C (15 uM). Cell density was quantified by Coulter counting which measures only cells with ionically intact plasma membranes (presumed live cells). Drug exposure time was 24 hours. Cell density values are expressed as a percentage of maximum for no drug or C6C only controls. Solid black lines in Panels A & B and dashed line in Panel B represent the average of all values across the PP2B-AIP concentration range. The ability of PKC agonists on apoptosis induction is potentiated by antagonists of Calmodulin-dependent protein phosphatase (a.k.a. Calcineurin or PP2B) and these effects occur at lower drug concentrations in transformed cells than in untransformed cells. […]

STR cells = details: PP2B-AIP alone, wide concentration range, 24 hours
Method: Panel B, cell density measured by Coulter counting; Panel C, morphological changes measured by changes in forward light scatter as measured by FACS; Panel D, percentage of spherical cells was determined on live cell populations by counting approximately 500 cells in a representative field using an inverted phase contrast microscope.
Closed circles, solid lines, PP2B-AIP only; open circles, dashed lines, PP2B+C6C (15 uM). Cell density was quantified by Coulter counting which measures only cells with Panel A, STR cells; Panel B, STVP cells. Closed circles, solid lines, PP2B-AIP only; open circles, dashed lines, PP2B+C6C (15 uM). Cell density was quantified by Coulter counting which measures only cells with ionically intact plasma membranes (presumed live cells). Drug exposure time was 24 hours. Cell density values are expressed as a percentage of maximum for no drug or C6C only controls. Solid black lines in Panels A & B and dashed line in Panel B represent the average of all values across the PP2B-AIP concentration range ionically intact plasma membranes (presumed live cells). Drug exposure time was 24 hours. Cell density values are expressed as a percentage of maximum for no drug or C6C only controls. Solid black lines in Panels A & B and dashed line in Panel B represent the average of all values across the PP2B-AIP concentration range.

certain cancers = details: in vivo; cited from earlier work
MEL-STR cells [3] = assay: Annexin V-FITC apoptosis detection by flow cytometry (apoptotic+dead cells); assay type: cell-based, human; details: 60 μm W-7, time course over 24 hrs
[4] = PP2B-AIP alone, over the concentration range tested

## CCCCCCCCCCCCCC(=O)O[C@@H]1[C@@H](C)[C@@]2(O)[C@@H](C=C(CO)C[C@]3(O)C(=O)C(C)=C[C@@H]23)[C@@H]2C(C)(C)[C@]12OC(C)=O [PMA, Phorbol-12-Myristate-13-Acetate]
MEL-STR cells [1]; PMA combined with submaximal W-7
  potentiation of induction of apoptosis in combination with W-7 (Annexin assay): shows potentiation; also recorded: synergy
MEL-STR cells [2]; PMA combined with W-7, light scatter by FACS and microscopic examination
  potentiation of cell shape change in combination with W-7: Potentiation is also confirmed; also recorded: synergistic drug effects

## Ac-RRRRRRRRRRRGGGRMAPPRRDAMPSDA-NH2 [PP2B-AIP]
MEL-STR cells [1]; [4]
  induction of apoptosis, drug alone: no visible induction of apoptosis
MEL-STR cells [1]; PP2B-AIP with C6C, 5 hr. exposure
  maximum of cells killed: ≤ 50%
MEL-STR cells [1]; combined with C6C
  potentiation of apoptosis in combination with C6C: potentiation is seen only in the transformed MEL-STR cell line
MEL-STVP cells; [4]
  induction of apoptosis, drug alone: no visible induction of apoptosis
MEL-STVP cells; combined with C6C
  potentiation of apoptosis in combination with C6C: not in untransformed MEL-STVP cells
STVP cells
  effect on growth, drug alone: no discernible effect
STR cells
  effect on growth, drug alone: no discernible effect

## C=C1/C(=C\C=C2/CCC[C@]3(C)[C@@H]([C@H](C)CCCC(C)(C)O)CC[C@@H]23)C[C@@H](O)C[C@@H]1O [Calcitriol]
Certain cancers
  reduction of the incidence of certain cancers: 17-20%

## CCCCCCCCCCCCC/C=C/[C@@H](O)[C@H](CO)NC(=O)CCCCC [C6C, N-Hexanoyl-D-erythro-Sphingosine]
MEL-STR cells [1]
  fold more potent at inducing apoptosis in STR compared to STVP cells: ca. 6 fold
MEL-STR cells [1]; C6C combined with W-7, 5 hr exposure
  potentiation of induction of apoptosis in combination with W-7: potentiated
MEL-STR cells [1]; MEL-STR vs MEL-STVP
  greater sensitivity / potency advantage, malignant versus non-malignant cells, induction of apoptosis: ~10 fold

## Oc1ccc(Nc2nc(-c3ccc(Cl)cc3)cs2)cc1 [SKi, 4-[[4-(4-Chlorophenyl)-1,3-thiazol-2-yl]amino]phenol]
MEL-STR cells [1]; SKi combined with W-7
  potentiation of induction of apoptosis in combination with W-7: synergy

## Cl.NCCCCCCNS(=O)(=O)c1cccc2c(Cl)cccc12 [W-7, N-(6-aminohexyl)-5-chloro-1-naphthalenesulfonamide hydrochloride]
MEL-STR cells [1]; 10 μm, previously determined
  induction of apoptosis at 10 μm: ineffective
MEL-STR cells [1]
  fold more potent at inducing apoptosis in STR compared to STVP cells: ca. 5 fold
MEL-STR cells [1]; MEL-STR vs MEL-STVP, 5 hr. exposure, dose response (FIG. 3)
  sensitivity to induction of apoptosis, malignant versus non-malignant cells: more than 10 times
MEL-STR cells [1]; MEL-STR vs MEL-STVP
  greater sensitivity / potency advantage, malignant versus non-malignant cells, induction of apoptosis: 10 fold
MEL-STR cells [2]; 60 μm W-7, microscopically or by FACS light scatter
  time at which morphological rounding of cells can be observed: 1 hr
MEL-STR cells [3]
  population scoring positively for apoptosis: > 90%
  time at which induction of apoptosis can be seen: 3 h

Source: patent US20170246241A1, “Methods for the Selective Treatment of Tumors by Calcium-Mediated Induction of Apoptosis” (priority 2003, published 2017)
